Measured values as given in ChEMBL document CHEMBL3872249, “Computer design, synthesis, and bioactivity analyses of drugs like fingolimod used in the treatment of multiple sclerosis” (Bioorg Med Chem, 2017).

Legend:
Assay type in all cases: functional
[1] = tested on: SK-N-SH; assay: Effect on PIK3CG mRNA expression in human SK-N-SH cells at EC10 by qPCR method relative to beta-actin
[2] = tested on: SK-N-SH; assay: Effect on CFLAR mRNA expression in human SK-N-SH cells at EC10 by qPCR method relative to beta-actin
[3] = tested on: SK-N-SH; assay: Effect on NOS2 mRNA expression in human SK-N-SH cells at EC10 by qPCR method relative to beta-actin
[4] = tested on: U-118-MG; assay: Effect on COL1A1 mRNA expression in human U118MG cells at EC10 by qPCR method relative to beta-actin
[5] = tested on: SK-N-SH; assay: Effect on JUN mRNA expression in human SK-N-SH cells at EC10 by qPCR method relative to beta-actin
[6] = tested on: SK-N-SH; assay: Effect on FASLG mRNA expression in human SK-N-SH cells at EC10 by qPCR method relative to beta-actin
[7] = tested on: U-118-MG; assay: Effect on CYP19A1 mRNA expression in human U118MG cells at EC10 by qPCR method relative to beta-actin
[8] = tested on: SH-SY5Y; assay: Effect on IL1B mRNA expression in human SH-SY5Y cells at EC10 by qPCR method relative to beta-actin
[9] = tested on: SK-N-SH; assay: Effect on FOXP3 mRNA expression in human SK-N-SH cells at EC10 by qPCR method relative to beta-actin
[10] = tested on: SH-SY5Y; assay: Effect on FGF2 mRNA expression in human SH-SY5Y cells at EC10 by qPCR method relative to beta-actin
[11] = tested on: U-118-MG; assay: Effect on IFNG mRNA expression in human U118MG cells at EC10 by qPCR method relative to beta-actin
[12] = tested on: SH-SY5Y; assay: Effect on IL2 mRNA expression in human SH-SY5Y cells at EC10 by qPCR method relative to beta-actin
[13] = tested on: SK-N-SH; assay: Effect on AGTR2 mRNA expression in human SK-N-SH cells at EC10 by qPCR method relative to beta-actin
[14] = tested on: U-118-MG; assay: Effect on CFLAR mRNA expression in human U118MG cells at EC10 by qPCR method relative to beta-actin
[15] = tested on: U-118-MG; assay: Effect on DRD2 mRNA expression in human U118MG cells at EC10 by qPCR method relative to beta-actin
[16] = tested on: SK-N-SH; assay: Effect on CSF1 mRNA expression in human SK-N-SH cells at EC10 by qPCR method relative to beta-actin
[17] = tested on: SK-N-SH; assay: Effect on EDNRA mRNA expression in human SK-N-SH cells at EC10 by qPCR method relative to beta-actin
[18] = tested on: SH-SY5Y; assay: Effect on AGTR2 mRNA expression in human SH-SY5Y cells at EC10 by qPCR method relative to beta-actin
[19] = tested on: SH-SY5Y; assay: Effect on EDNRA mRNA expression in human SH-SY5Y cells at EC10 by qPCR method relative to beta-actin
[20] = tested on: SK-N-SH; assay: Effect on TSHR mRNA expression in human SK-N-SH cells at EC10 by qPCR method relative to beta-actin
[21] = tested on: SH-SY5Y; assay: Effect on NOS2 mRNA expression in human SH-SY5Y cells at EC10 by qPCR method relative to beta-actin
[22] = tested on: U-118-MG; assay: Effect on IL1B mRNA expression in human U118MG cells at EC10 by qPCR method relative to beta-actin
[23] = tested on: U-118-MG; assay: Effect on TSHR mRNA expression in human U118MG cells at EC10 by qPCR method relative to beta-actin
[24] = tested on: SK-N-SH; assay: Effect on VEGFA mRNA expression in human SK-N-SH cells at EC10 by qPCR method relative to beta-actin
[25] = tested on: SH-SY5Y; assay: Effect on ADRB2 mRNA expression in human SH-SY5Y cells at EC10 by qPCR method relative to beta-actin
[26] = tested on: SK-N-SH; assay: Effect on ICAM1 mRNA expression in human SK-N-SH cells at EC10 by qPCR method relative to beta-actin
[27] = tested on: U-118-MG; assay: Effect on CXCL11 mRNA expression in human U118MG cells at EC10 by qPCR method relative to beta-actin
[28] = tested on: SH-SY5Y; assay: Effect on JUN mRNA expression in human SH-SY5Y cells at EC10 by qPCR method relative to beta-actin
[29] = tested on: SH-SY5Y; assay: Effect on AKT1 mRNA expression in human SH-SY5Y cells at EC10 by qPCR method relative to beta-actin
[30] = tested on: SH-SY5Y; assay: Effect on EPHA1 mRNA expression in human SH-SY5Y cells at EC10 by qPCR method relative to beta-actin
[31] = tested on: SK-N-SH; assay: Effect on BCL2 mRNA expression in human SK-N-SH cells at EC10 by qPCR method relative to beta-actin
[32] = tested on: SK-N-SH; assay: Effect on IL1B mRNA expression in human SK-N-SH cells at EC10 by qPCR method relative to beta-actin
[33] = tested on: SK-N-SH; assay: Effect on MYC mRNA expression in human SK-N-SH cells at EC10 by qPCR method relative to beta-actin
[34] = tested on: U-118-MG; assay: Effect on GRM1 mRNA expression in human U118MG cells at EC10 by qPCR method relative to beta-actin
[35] = tested on: U-118-MG; assay: Effect on VEGFA mRNA expression in human U118MG cells at EC10 by qPCR method relative to beta-actin
[36] = tested on: SH-SY5Y; assay: Effect on IFNG mRNA expression in human SH-SY5Y cells at EC10 by qPCR method relative to beta-actin
[37] = tested on: SH-SY5Y; assay: Effect on OPRD1 mRNA expression in human SH-SY5Y cells at EC10 by qPCR method relative to beta-actin
[38] = tested on: U-118-MG; assay: Effect on CCL2 mRNA expression in human U118MG cells at EC10 by qPCR method relative to beta-actin
[39] = tested on: U-118-MG; assay: Effect on MAG mRNA expression in human U118MG cells at EC10 by qPCR method relative to beta-actin
[40] = tested on: SK-N-SH; assay: Effect on CCL3 mRNA expression in human SK-N-SH cells at EC10 by qPCR method relative to beta-actin
[41] = tested on: SK-N-SH; assay: Effect on HDAC1 mRNA expression in human SK-N-SH cells at EC10 by qPCR method relative to beta-actin
[42] = tested on: SK-N-SH; assay: Effect on CD44 mRNA expression in human SK-N-SH cells at EC10 by qPCR method relative to beta-actin
[43] = tested on: SH-SY5Y; assay: Effect on PTGDR mRNA expression in human SH-SY5Y cells at EC10 by qPCR method relative to beta-actin
[44] = tested on: SK-N-SH; assay: Effect on ITGB2 mRNA expression in human SK-N-SH cells at EC10 by qPCR method relative to beta-actin

With `CCCCCCCCn1nnnc1CCC(N)(CO)CO.Cl` the “fold change (FC)” value [1] was -7.7108, the “fold change (FC)” value [2] was -3.3101 and the “fold change (FC)” value [3] was -5.1582. The “fold change (FC)” value [4] was -5.8779, the “fold change (FC)” value [5] was -7.2696 and the “fold change (FC)” value [6] was -2.9626. The “fold change (FC)” value [7] was -3.3614, the “fold change (FC)” value [8] was -6.5966 and the “fold change (FC)” value [9] was -3.4447. For the same compound, the “fold change (FC)” value [10] was -3.8516, the “fold change (FC)” value [11] was -4.5394 and the “fold change (FC)” value [12] was -3.9071. For the same compound, the “fold change (FC)” value [13] was 9.0827, the “fold change (FC)” value [14] was -2.9826 and the “fold change (FC)” value [15] was -2.5398. The “fold change (FC)” value [16] was -3.004, the “fold change (FC)” value [17] was 7.0402 and the “fold change (FC)” value [18] was 8.9431. The “fold change (FC)” value [19] was 3.6859, the “fold change (FC)” value [20] was 5.2621 and the “fold change (FC)” value [21] was -4.7071. For the same compound, the “fold change (FC)” value [22] was -3.0275, the “fold change (FC)” value [23] was 3.1513 and the “fold change (FC)” value [24] was -7.9138. The “fold change (FC)” value [25] was -4.5291, the “fold change (FC)” value [26] was -9.5591 and the “fold change (FC)” value [27] was -2.9665. The “fold change (FC)” value [28] was -4.7214, the “fold change (FC)” value [29] was -4.1766 and the “fold change (FC)” value [30] was -6.2326. The “fold change (FC)” value [31] was -7.8184, the “fold change (FC)” value [32] was -4.7796 and the “fold change (FC)” value [33] was -4.315. For the same compound, the “fold change (FC)” value [34] was -6.1329, the “fold change (FC)” value [35] was -4.4402 and the “fold change (FC)” value [36] was -2.7247. For the same compound, the “fold change (FC)” value [37] was 2.8007.
`CCCCCCCCn1nnnc1-c1ccc(C(O)CC(N)(CO)CO)cc1.Cl` (configuration not stated) was tested, and the “fold change (FC)” value [38] was -5.2393, the “fold change (FC)” value [12] was -4.4248 and the “fold change (FC)” value [39] was 3.7859. The “fold change (FC)” value [27] was -4.2262 and the “fold change (FC)” value [40] was -5.716.
In the case of `CCCCCCCCc1ccc(CCC(N)(CO)CO)cc1` [FINGOLIMOD], the “fold change (FC)” value [1] is reported as -5.7333, the “fold change (FC)” value [2] is reported as -11.0378 and the “fold change (FC)” value [3] is reported as -5.9976. The “fold change (FC)” value [4] was -5.339, the “fold change (FC)” value [5] was -2.7499 and the “fold change (FC)” value [41] was -6.6778. The “fold change (FC)” value [38] was -5.2826, the “fold change (FC)” value [42] was -4.3753 and the “fold change (FC)” value [6] was -3.5415. The “fold change (FC)” value [7] was -4.301, the “fold change (FC)” value [8] was -4.7158 and the “fold change (FC)” value [9] was -4.444. For the same compound, the “fold change (FC)” value [10] was -8.2392, the “fold change (FC)” value [11] was -5.5428 and the “fold change (FC)” value [13] was 3.8122. For the same compound, the “fold change (FC)” value [14] was -3.53, the “fold change (FC)” value [15] was -2.6579 and the “fold change (FC)” value [16] was -7.7644. The “fold change (FC)” value [17] was 7.6112, the “fold change (FC)” value [18] was 3.2887 and the “fold change (FC)” value [19] was 6.8804. The “fold change (FC)” value [43] was -4.9331, the “fold change (FC)” value [20] was -4.4134 and the “fold change (FC)” value [21] was -3.9518. For the same compound, the “fold change (FC)” value [22] was -4.3432, the “fold change (FC)” value [44] was -6.3947 and the “fold change (FC)” value [23] was -3.664. For the same compound, the “fold change (FC)” value [24] was -7.7644, the “fold change (FC)” value [39] was 4.0174 and the “fold change (FC)” value [25] was -11.1967. The “fold change (FC)” value [26] was -4.0965, the “fold change (FC)” value [28] was -3.5677 and the “fold change (FC)” value [29] was -9.4316. The “fold change (FC)” value [30] was -6.442, the “fold change (FC)” value [31] was -2.7547 and the “fold change (FC)” value [32] was -5.3866. The “fold change (FC)” value [33] was -8.3361, the “fold change (FC)” value [36] was -5.1964 and the “fold change (FC)” value [40] was -4.0682. The “fold change (FC)” value [37] was 5.0193.
